We go through two compounds from patent publication US20210315175A1, “METHODS OF MAKING FEMINIZED CANNABIS SATIVA SEED AND COMPOSITIONS THEREOF” (priority 2019, published 2021).

Data set [1] concerns genetically female Cannabis ssp plants. Briefly: AIB root drench: induction of male flowers and phytotoxicity (Example 21). The data set is classed as in vivo. The protocol:
To determine if the ethylene inhibitor 2-Aminoisobutyric acid (AIB) can induce male flowers on genetically female Cannabis ssp plants, three different rates of 2-Aminoisobutyric acid (AIB) were applied to plants as a root drench, with two applications per rate. The first application occurred 79 days after seeding, which was on the day plants were transitioned from a vegetative, long day photoperiod (18 h day) to a reproductive, short day photoperiod (12 h day), and the second treatment was applied 5 days later. The stem diameter of the plants on the day of the first treatment were 9 to 10 mm and the plants ranged from 37 to 54 cm in height. The three rates tested were 50, 150 and 300 mM AIB in water, and 150 ml of solution was applied to the roots as a soil drench.

For data set [2] the test system is unchanged. Put plainly: 1-MCP root drench: induction of male flowers (Example 19). In kind it is in vivo. The conditions noted are these: 0.27 mM or 0.54 mM 1-MCP root drench, three treatments, 3 varieties. The protocol:
To determine if the ethylene inhibitor 1-Methylcyclopropene (1-MCP) can induce male flowers on genetically female Cannabis ssp plants, 1-MCP was applied at two different rates to 3 different varieties, with 2 replicates per treatment. The plants were treated with 1-MCP three times, with the first treatment 51 days after seeding, which was on the day plants were transitioned from a vegetative, long day photoperiod (18 h day) to a reproductive, short day photoperiod (12 h day), the second treatment was applied 7 days later and the third treatment was 8 days after the second. For the first two treatments the low rate was 0.27 mM 1-MCP and 25 ml solution per plant was immediately applied as a root drench. The high rate was 0.54 mM and similarly, 25 ml of solution was applied as a root drench. For the third treatment, the dose was doubled by applying 50 ml of the solutions described above, as the plants were larger.

With `CC(C)(N)C(=O)O` [AIB, 2-Aminoisobutyric acid], in data set [1] (50 and 150 mM AIB, two root drenches), the “survival and male structures” value was “survived and produced small male structures that did not produce viable pollen”. Besides, the phytotoxicity entry in data set [1] (after the second treatment, particularly in the highest rate) is “more severe phototoxicity”. Further, in data set [1] (highest rate (300 mM AIB), two root drenches), the plant survival entry is given as “the plant ultimately died”. Further, in data set [1] (within 2 days of the first treatment, 50, 150 and 300 mM AIB, 150 ml root drench), the “phytotoxicity in leaf and meristematic tissues” value is “Mild phytotoxicity”.
In the case of `CC1=CC1` [1-MCP, 1-Methylcyclopropene], in data set [2], the chlorosis result is “mild chlorosis of growing apices” and the male structures entry is reported as “no clear or consistent male structures were observed in any of the treatments”.
